{
  "source": "patent US7407914B2",
  "about": "“Herbicide composition” (Sumitomo Chemical Company, Limited, priority 2001, dated 2008)",
  "tested_on": "broadleaf signalgrass",
  "assay": "Foliar spray herbicide effect test in greenhouse pots (Test Example 1)",
  "type": "in vivo, Brachiaria platyphylla",
  "settings": "evaluated 5 days after treatment, level 0-10",
  "protocol": "Evaluation of phytotoxicity against a crop was shown by “no” when almost no phytotoxicity was observed, “low” when a low level phytotoxicity was observed, “medium” when a medium level phytotoxicity was observed and “high” when a high level phytotoxicity was observed.\nA plastic pot of 11 cm in diameter and 8 cm in depth was filled with field soil. A seed of broadleaf signalgrass was sown and grown in a greenhouse for 28 days.\nAn emulsion of Compound A-1 was prepared by sufficiently mixing […] of Compound A-1, 6 parts of Sorpol 3005× (surfactant, produced by Toho Chemical) and 89 parts of xylene.\nEach of • single use of an emulsion of Compound A-1, • single use of a formulation of Flumioxazin (commercial name: Pledge, produced by Sumitomo Chemical, containing 50% of Flumioxazin), • single use of a formulation of Sulfentrazone (commercial name: Authority, produced by Du Pont, containing 75% of Sulfentrazone), • a mixed composition of an emulsion of Compound A-1 and a formulation of Flumioxazin, and • a mixed composition of an emulsion of Compound A-1 and a solution of Sulfentrazone • were diluted with water containing 1% Agri-dex (produced by Helena). […]\nAfter the treatment, they were raised in a greenhouse for 5 days and the effect against weeds was evaluated. In addition, after 14 days of the treatment, the phytotoxicity to soybean was evaluated.",
  "data": [
    {"smiles": "Cc1nn(-c2cc(NS(C)(=O)=O)c(Cl)cc2Cl)c(=O)n1C(F)F", "note": "[Sulfentrazone, N-[2,4-dichloro-5-[4-(difluoromethyl)-4,5-dihydro-3-methyl-5-oxo-1H-1,2,4-triazol-1-yl]phenyl]methanesulfonamide]", "values": [
      {"measurement": "Herbicide Effect Broad signalgrass", "setting": "200 g/ha active ingredient", "value": 1},
      {"measurement": "Herbicide Effect Broad signalgrass", "setting": "1200 g/ha active ingredient", "value": 3}
    ]}
  ]
}
